Measurements taken from patent publication US8227510B2, “Combine use of pterostilbene and quercetin for the production of cancer treatment medicaments” (Universitat de Valencia, priority 2004, dated 2012).

Assays:
B16M-F10/Tet-Bcl-2 = assay: Survival of mice carrying B16M-F10/Tet-Bcl-2 metastases; type: in vivo; conditions: 20 mg/kg i.v. daily, none 12 ± 1
Description: Hepatic metastases were induced by i.v. inoculations (portal vein), in anesthetized mice (Nembutal, 50 mg/kg i.p.), of 4×10^5 viable B16M-F10 cells suspended in 0.2 ml of DMEM. The mice were sacrificed by cervical dislocation 10 days after inoculation. The livers were fixed by immersion for 24 hours at 22° C. in 10% formaldehyde in PBS (pH 7.4), and were subsequently embedded in paraffin. The density of metastases (average number of foci/100 mm^3 of liver detected in fifteen sections of 10×10 mm^2 per liver) and the volume of metastases (average percentage of liver volume occupied by metastases) were determined as described previously (22).
This methodology makes it possible for the effect of PTER and QUER to be studied in vivo. […] The number of adhering cells shown in the table was calculated at 60 minutes postinjection (no significant differences were found when the measurements were effected at 30, 120, 180, 240 or 360 minutes postinjection, data not shown). The number of intact cells was calculated at 6 hours postinjection. […] The growth of metastases in the liver was evaluated as stated in the corresponding section of the description, and in this case the mice were treated daily (×10 days) with t-PTER and/or QUER (20 mg/kg of body weight) administered i.v. (the data are mean values±SD corresponding to 25 mice per group). […]

[1] = rabbits, i.v., cited from earlier work
VCAM-1 = conditions: cited from earlier work
B16M-F10 cells / HSE [2] = conditions: as described previously (ref. 14); cited from earlier work
B16M-F10 cells / HSE [3] = conditions: as described previously (ref. 14); cited from earlier work; remark: listed apart in the source

Row | Structure (SMILES) | Survival of the carrier (B16M-F10/Tet-Bcl-2) [days] | highest concentration in plasma ([1]; 5 minutes after administration) [µM] | time in which plasma concentration falls to ~1 μM [1] [min] | concentration at which expression of VCAM-1 is inhibited (VCAM-1) [µM] | inhibition of adhesion of tumor cells to the endothelium (B16M-F10 cells / HSE [2]) [%] | effect on HSE-induced cytotoxicity on the metastatic cells (B16M-F10 cells / HSE [3])
1 | COc1cc(/C=C/c2ccc(O)cc2)cc(OC)c1 [PTER, pterostilbene] | 12 ± 2 |  |  |  |  | 
2 | O=c1c(O)c(-c2ccc(O)c(O)c2)oc2cc(O)cc(O)c12 [QUER, quercetin] | 13 ± 2 | ~43 | 60 |  |  | 
3 | Oc1ccc(C=Cc2cc(O)cc(O)c2)cc1 [RESV, resveratrol, reference compound] |  |  |  | 1 | ~47 | without increasing the HSE-induced cytotoxicity
